Experimental data as given in ChEMBL document CHEMBL1201862, “PubChem BioAssay data set” (2004).
Each block holds one compound with its values, some of them ahead of it. Calls of active or inactive are those of the source.

Legend:
Assay type in all cases: functional
[1] = biological target: G-protein coupled receptor 35 (Homo sapiens, UniProt Q9HC97); test: SAR analysis of Antagonists of the GPR35 Receptor using an Image-Based Assay - Set 5. [Related pubchem assays (depositor defined):AID2058, AID2079]
[2] = biological target: G-protein coupled receptor 55 (Homo sapiens, UniProt Q9Y2T6); test: SAR Analysis of Selective Antagonists of GPR55 using an Image-Based Assay - Set 3. [Related pubchem assays (depositor defined):AID2058, AID2079]
Integrin alpha-4 = Integrin alpha-4 (Homo sapiens, UniProt P13612); test: allosteric modulators of alpha4 integrin VLA-4 – cell-based, LIBS antibody binding, flow cytometry, SAR follow-up (AID 488791)
Hexokinase = Hexokinase (Trypanosoma brucei, UniProt Q38C41); test: Confirmation assay for inhibitors of Trypanosoma brucei hexokinase 1-Analogue-first series. [Related pubchem assays (depositor defined):AID1430, AID1632, AID2516, AID2560, AID2579, AID2600, AID449725, AID492951]
Mu-type opioid receptor = Mu-type opioid receptor (Homo sapiens, UniProt P35372); test: SAR Analysis of Antagonists of the MOR Receptor using an Image-Based Assay - Set 3. [Related pubchem assays (depositor defined):AID1777, AID1785, AID1786, AID1966, AID2133, AID2136, AID2284, AID2285, AID2420]
[3] = biological target: Delta-type opioid receptor (Homo sapiens, UniProt P41143); test: SAR Analysis of Antagonists of the DOR Receptor using an Image-Based Assay - Set 3. [Related pubchem assays (depositor defined):AID1777, AID1785];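 note: U2OS cells expressing DOR1 and beta-arrestin GFP stimulated with 100 nM SNC80; imaging of GFP-tagged beta-arrestin moving into spots after receptor activation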
[4] = biological target: T1, Kappa-type opioid receptor (Homo sapiens, UniProt P41145); test: SAR analysis of small molecule antagonists of the kappa opioid receptor via a luminescent beta-arrestin assay - Set 3. [Related pubchem assays (depositor defined):AID1777, AID1778, AID1785, AID1786, AID1966, AID2133, AID2136, AID2285, AID2495]
[5] = biological target: T1, Kappa-type opioid receptor; test: SAR analysis of Antagonists of the Kappa Opioid Receptor (KOR) using an Image-Based Assay - Set 4. [Related pubchem assays (depositor defined):AID1777, AID1785]
Coagulation factor XII = biological target: T2, Coagulation factor XII (Homo sapiens, UniProt P00748); test: Factor XIIa Dose Response Confirmation from Single Well HTS. [Related pubchem assays (depositor defined):AID701]
T2 sequence (P00748 whole entry): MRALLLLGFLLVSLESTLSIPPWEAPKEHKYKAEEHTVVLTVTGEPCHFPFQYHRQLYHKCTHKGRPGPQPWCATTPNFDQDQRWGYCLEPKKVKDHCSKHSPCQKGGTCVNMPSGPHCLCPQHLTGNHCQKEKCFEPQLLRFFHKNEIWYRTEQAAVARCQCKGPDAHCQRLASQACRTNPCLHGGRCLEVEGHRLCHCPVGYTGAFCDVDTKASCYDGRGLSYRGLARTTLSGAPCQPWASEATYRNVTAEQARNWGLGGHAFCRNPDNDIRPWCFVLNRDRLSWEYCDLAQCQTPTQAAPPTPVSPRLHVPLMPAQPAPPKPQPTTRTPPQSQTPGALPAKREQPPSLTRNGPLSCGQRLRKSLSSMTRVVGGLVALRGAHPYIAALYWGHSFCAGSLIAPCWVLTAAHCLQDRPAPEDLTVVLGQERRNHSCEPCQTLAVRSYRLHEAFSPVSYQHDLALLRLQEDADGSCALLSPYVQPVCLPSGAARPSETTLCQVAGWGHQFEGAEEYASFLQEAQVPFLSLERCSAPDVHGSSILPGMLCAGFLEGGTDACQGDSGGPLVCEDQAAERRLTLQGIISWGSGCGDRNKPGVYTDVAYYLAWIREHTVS

T1 sequence (P41145 whole entry): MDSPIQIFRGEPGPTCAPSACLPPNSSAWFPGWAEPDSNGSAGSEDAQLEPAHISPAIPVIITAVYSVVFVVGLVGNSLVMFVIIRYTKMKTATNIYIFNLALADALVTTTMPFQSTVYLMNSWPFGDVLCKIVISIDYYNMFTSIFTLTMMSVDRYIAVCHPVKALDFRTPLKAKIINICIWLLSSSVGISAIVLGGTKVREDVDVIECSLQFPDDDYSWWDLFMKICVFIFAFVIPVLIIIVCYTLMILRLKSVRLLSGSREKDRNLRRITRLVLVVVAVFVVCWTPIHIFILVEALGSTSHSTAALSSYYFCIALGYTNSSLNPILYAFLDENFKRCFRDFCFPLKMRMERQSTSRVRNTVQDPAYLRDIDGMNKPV
G-protein coupled receptor 35, sequence (Q9HC97 whole entry): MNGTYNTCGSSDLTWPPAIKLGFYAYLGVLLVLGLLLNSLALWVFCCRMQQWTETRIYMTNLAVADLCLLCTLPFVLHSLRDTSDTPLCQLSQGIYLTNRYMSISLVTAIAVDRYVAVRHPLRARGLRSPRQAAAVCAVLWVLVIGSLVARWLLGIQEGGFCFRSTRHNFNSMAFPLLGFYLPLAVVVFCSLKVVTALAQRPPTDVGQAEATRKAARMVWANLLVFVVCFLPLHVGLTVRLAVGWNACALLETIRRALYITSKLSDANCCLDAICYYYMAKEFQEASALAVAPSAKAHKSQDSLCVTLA
Integrin alpha-4, sequence (P13612 whole entry): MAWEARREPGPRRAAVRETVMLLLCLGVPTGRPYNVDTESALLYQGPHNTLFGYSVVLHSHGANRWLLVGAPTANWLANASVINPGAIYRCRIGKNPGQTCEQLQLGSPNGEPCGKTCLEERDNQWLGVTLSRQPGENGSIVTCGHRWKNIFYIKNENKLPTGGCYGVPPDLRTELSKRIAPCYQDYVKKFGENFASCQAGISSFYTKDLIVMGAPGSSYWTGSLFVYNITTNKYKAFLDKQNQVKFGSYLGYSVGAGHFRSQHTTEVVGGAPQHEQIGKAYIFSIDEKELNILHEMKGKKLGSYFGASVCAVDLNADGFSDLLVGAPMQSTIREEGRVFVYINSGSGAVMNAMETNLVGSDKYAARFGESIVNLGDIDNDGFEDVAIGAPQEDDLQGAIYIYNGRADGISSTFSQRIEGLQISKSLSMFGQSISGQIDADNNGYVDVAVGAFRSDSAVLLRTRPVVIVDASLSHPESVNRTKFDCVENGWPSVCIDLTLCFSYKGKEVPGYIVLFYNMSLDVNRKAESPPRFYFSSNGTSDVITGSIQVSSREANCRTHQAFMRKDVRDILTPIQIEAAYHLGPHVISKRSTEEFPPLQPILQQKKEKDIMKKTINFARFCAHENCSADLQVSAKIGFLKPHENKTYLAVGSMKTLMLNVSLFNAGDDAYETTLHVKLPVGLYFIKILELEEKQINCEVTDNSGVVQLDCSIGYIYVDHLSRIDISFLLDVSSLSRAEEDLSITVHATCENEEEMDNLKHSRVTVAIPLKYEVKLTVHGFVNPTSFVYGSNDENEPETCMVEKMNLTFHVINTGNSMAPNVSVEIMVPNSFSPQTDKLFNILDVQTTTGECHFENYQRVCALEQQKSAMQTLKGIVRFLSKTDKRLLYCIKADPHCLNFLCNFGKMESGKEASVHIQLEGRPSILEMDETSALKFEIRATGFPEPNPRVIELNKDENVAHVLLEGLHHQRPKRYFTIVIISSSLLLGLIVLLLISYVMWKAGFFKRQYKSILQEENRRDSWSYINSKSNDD
Hexokinase, sequence (Q38C41 whole entry): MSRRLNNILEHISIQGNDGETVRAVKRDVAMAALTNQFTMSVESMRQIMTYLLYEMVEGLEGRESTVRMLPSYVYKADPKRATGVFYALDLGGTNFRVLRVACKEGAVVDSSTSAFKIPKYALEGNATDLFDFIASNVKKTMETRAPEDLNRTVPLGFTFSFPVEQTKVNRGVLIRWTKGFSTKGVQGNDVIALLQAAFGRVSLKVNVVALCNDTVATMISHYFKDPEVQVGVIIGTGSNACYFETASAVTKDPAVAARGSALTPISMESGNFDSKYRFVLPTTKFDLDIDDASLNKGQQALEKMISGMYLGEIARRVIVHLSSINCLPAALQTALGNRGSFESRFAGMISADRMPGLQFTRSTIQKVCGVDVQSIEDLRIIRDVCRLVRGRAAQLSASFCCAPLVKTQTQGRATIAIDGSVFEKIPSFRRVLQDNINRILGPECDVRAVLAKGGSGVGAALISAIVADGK
G-protein coupled receptor 55, sequence (Q9Y2T6 whole entry): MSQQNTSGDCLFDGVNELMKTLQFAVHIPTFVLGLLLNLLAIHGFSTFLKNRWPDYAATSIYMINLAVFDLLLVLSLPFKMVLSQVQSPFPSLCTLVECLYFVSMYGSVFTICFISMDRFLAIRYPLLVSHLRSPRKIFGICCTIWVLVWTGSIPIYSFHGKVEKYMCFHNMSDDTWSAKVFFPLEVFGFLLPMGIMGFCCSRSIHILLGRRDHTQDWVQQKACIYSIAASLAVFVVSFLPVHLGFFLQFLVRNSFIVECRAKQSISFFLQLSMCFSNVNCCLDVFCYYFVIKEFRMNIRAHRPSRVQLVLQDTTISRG
Mu-type opioid receptor, sequence (P35372 whole entry): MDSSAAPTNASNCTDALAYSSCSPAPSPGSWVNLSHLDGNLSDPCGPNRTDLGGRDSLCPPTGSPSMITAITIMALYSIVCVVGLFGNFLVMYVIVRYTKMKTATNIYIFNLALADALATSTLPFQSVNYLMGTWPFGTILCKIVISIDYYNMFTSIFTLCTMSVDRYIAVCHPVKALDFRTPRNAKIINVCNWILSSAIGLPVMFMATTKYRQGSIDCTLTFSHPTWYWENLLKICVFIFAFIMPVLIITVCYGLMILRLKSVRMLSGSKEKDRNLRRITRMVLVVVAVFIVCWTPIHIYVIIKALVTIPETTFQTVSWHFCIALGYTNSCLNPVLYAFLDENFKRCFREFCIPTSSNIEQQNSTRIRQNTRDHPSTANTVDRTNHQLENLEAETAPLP
Delta-type opioid receptor, sequence (P41143 whole entry): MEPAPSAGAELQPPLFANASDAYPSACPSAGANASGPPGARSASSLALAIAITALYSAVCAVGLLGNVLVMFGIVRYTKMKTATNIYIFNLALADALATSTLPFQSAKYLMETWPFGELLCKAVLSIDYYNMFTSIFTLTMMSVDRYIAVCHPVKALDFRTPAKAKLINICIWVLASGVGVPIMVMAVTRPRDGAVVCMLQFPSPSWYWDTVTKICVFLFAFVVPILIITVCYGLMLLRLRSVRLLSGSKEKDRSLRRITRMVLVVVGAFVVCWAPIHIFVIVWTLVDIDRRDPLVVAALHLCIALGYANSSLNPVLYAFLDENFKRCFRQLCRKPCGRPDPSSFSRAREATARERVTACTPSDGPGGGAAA

Compound: Cc1ccc(NC(=O)c2cc(N3C(=O)CCC3=O)ccc2N2CCOCC2)cc1Cl
EC50 (Integrin alpha-4): 23.3 µM (active)

Compound: O=C(O)c1ccc(Cl)cc1NC(=O)N1CCOCC1
IC50 (Hexokinase): > 25 µM (inactive)

Compound: COc1ccc(N2CCN(CCCNC(=O)Cn3c(=O)c4cccn4c4cc(Br)cnc43)CC2)c(OC)c1
IC50 (Mu-type opioid receptor): 10.2 µM (inactive)
IC50 [3]: > 32 µM (inactive)
IC50 [4]: 2.82 µM (active)
IC50 [5]: 3.02 µM (active)

Results, then the compound that gave them:

IC50 [1]: 1.01 µM (active)
IC50 [2]: 15.1 µM (inactive)
Compound: COC(=O)c1cnn(-c2ccccc2)c1/C=N/NC(=S)Nc1ccccc1

IC50 (Coagulation factor XII): > 50 µM (inactive)
Compound: Cc1ccc(CNC(=O)C[S+]([O-])CC(=O)O)cc1 (centres undefined)
